From publication PMC7156724, “Potent BRD4 inhibitor suppresses cancer cell-macrophage interaction” (Nature Communications, 2020)
Values joined by “and” are separate entries in the source; they are usually repeats but may differ in a detail not shown here. Equal entries are not always repeated.

Experiments:
[1] = Equilibrium dialysis assay, SD rat plasma
Description: The concentration was calculated using the peak area ratio of analyte and internal […]
The results were calculated by the following equations:
% Unbound = 100 *FC / TC, % Bound = 100 * (1-FC / TC)
% Recovery = 100 * (FC + TC) / T0
TC = Total compound concentration as determined by the calculated concentration on the retentate side of the membrane
FC = Free compound concentration as determined by the calculated concentration on the dialysate side of the membrane […]
Equation of first order kinetics: […]
8. Equilibrium dialysis assay. Binding with plasma protein and recovery rate of NHWD-870 were performed with human, CD-1 mouse and SD rat plasma as […]
described 2. […] The concentration was […]
calculated using the peak area ratio of analyte and internal standard. The results were calculated by the following equations: % Unbound = 100 *FC / TC, % Bound = 100 * (1-FC / TC); % Recovery = 100 * (FC + TC) / T0; TC = Total compound concentration as determined by the calculated concentration on the retentate side of the membrane; FC = Free compound concentration as determined by the (1 picture or pasted object on this page, not shown here) […]
calculated concentration on the dialysate side of the membrane; T0 = To t a l compound concentration as determined before dialysis. […]
10. hERG channel assay. […]
HEK293 cell line stably

[2] = test system: TAMs (CD68+ cells) in A2780 tumors; assay: Immunofluorescent staining of CD68 and Ki67 (TAMs) in subcutaneous A2780 tumors; format: in vivo, mouse; details: individual tumors
Source text: Shown are immunofluorescent staining of CD68 (macrophage marker, red) and E-Cadherin (cancer cells, green) (a) and quantification of CD68 positive cells (b) in vehicle, NHWD-870 treated H526 (n = 6) and A2780 (n = 5) tumors from Fig. 3a, b, respectively. Scale bar is 100 μm. […] Shown are representative immunofluorescent staining of Ki67 and CD68 (c) and quantification of percentage of Ki67+ cells in CD68+ cells (d). Scale bar is 30 μm. Data are presented as mean ± SEM of five different tumors. e Schematics of the animal experiments using an orthotopic mouse OC model, established by intraperitoneally injecting human A2780 cells into female recipient nude mice. […] Shown are representative immunofluorescent staining of Ki67 and CD68 (h) and quantification of Ki67^+CD68^− (i) or Ki67^+CD68^+ (j), or CD68^+ cells (k). […] Data are presented as mean ± SEM from five different mice. p values were calculated using two-tailed, unpaired t tests in this figure. *p < 0.05; **p < 0.01; ***p < 0.001. […]
Immunofluorescence staining of tumor sections was performed according to the manufacturer’s instructions. Slides were imaged using a Zeiss Axiovert 200 fluorescence microscope (Carl Zeiss MicroImaging; Thornwood, NY), and images were captured using Openlab3 software (Imprecision, Lexington, MA). Cleaved caspase 3, Ki67, CSF1, and CD68 positive cells were counted with ImageJ version 1.52s[58].

CSF1 mRNA = assay: RT-qPCR of CSF1 mRNA in human ovarian cancer and melanoma cells; format: cell-based; details: 50 nM, 48 h
CSF1 protein = assay: ELISA of CSF1 protein in supernatant of human tumor cells (A2780, SKOV3, A375); format: cell-based; details: 10^6 A375 cells, 25 nM, 24 h
Description: A2780 tumor cells were pretreated with 100 nM NHWD-870 and then directly co-cultured with TAMs (A2780:TAMs ratio as 4:1) at the density of 1 × 10^5 total cells in a 12-well. Shown are immunofluorescent staining of Ki67 and CD68 (a) and quantification of Ki67+ and CD68− or CD68+ cells (b). Scale bar is 50 μm. […] A2780 cells (pre-treated with or without 100 nM NHWD-870 for 48 h) were seeded into the top chamber (transwell size: 0.4 μm) and TAMs (Mac, 40,000 cells per 24-well) in medium containing 2% matrigel were seeded into the bottom chamber pre-coated with Matrigel. No NHWD-870 was added to the co-culture. The upper chamber without A2780 cells was used as a control. Shown are schematics of transwell co-culture experiment (c), representative pictures of TAM spheroid (d: black/white), and quantification of spheroid volumes (e). Scale bar is 50 μm. […] Data are presented as mean ± SEM from three independent experiments. g CSF1 protein levels in supernatant of 10^6 ID8, B16, A2780, SKOV3, and A375 cells treated with DMSO or 25 nM NHWD-870 for 24 h, as measured by ELISA. […] Scale bar is 20 μm. i Quantification of CSF1 staining in DMSO or 100 nM NHWD-870 treated A2780 cells. […] Shown are representative immunofluorescent staining of CSF1 (green) and CD68 (red) (j) and quantification of CSF1 staining (k). […]

Cc1nnn(C)c1-c1cnc2c3c4cnn(C)c4ccc3n([C@H](c3ccccc3)C3CCOCC3)c2c1 [NHWD-870]
% Bound ([1]; SD rat plasma, equilibrium dialysis): 95.4% | fraction unbound ([1]; SD, rat, plasma): 0.046 | recovery ([1]; SD, rat, plasma): 92.5% | quantification of CD68 positive cells ([2]; subcutaneous A2780 tumors from Fig. 3b): 0.5 and 0.3 and 0.2 and 1.2 and 2.3 | percentage of Ki67+ cells in CD68+ cells ([2]; subcutaneous A2780 tumors): 3.1 and 0 (3×) and 1.7 | relative CSF1 mRNA level (CSF1 mRNA; 2780 (A2780)): 0.0041 and 0.006 and 0.005 | relative CSF1 mRNA level (CSF1 mRNA; YUAME): 0.0004 and 0.0005 and 0.0003 | CSF1 protein levels in supernatant (ELISA) (CSF1 protein): 26 and 36 and 31
